These results are taken from patent US8193185B2, “Use of tryptanthrin compounds for immune potentiation” (Novartis Vaccines and Diagnostics, Inc., priority 2003, dated 2012).

Each structure is given as a SMILES string. Where only a bound is given, the exact number is not on record here.

The test has as its system human peripheral blood mononuclear cells (PBMC). Briefly: HTS assay for small molecule immune potentiators: TNF-a production by human PBMC (sandwich ELISA). The test is classed as cell-based. To be noted: human PBMC 500,000 per mL, 18 h at 37° C., secreted TNF by sandwich ELISA. An excerpt: Candidate small molecule immune potentiators can be identified in vitro. Compounds are screened in vitro for their ability to stimulate human peripheral blood mononuclear cells to produce cytokines (e.g. TNF-a and IL-12 p40). Apoptosis inducing small molecules may be identified having this activity. These small molecule immunopotentiators have potential utility as adjuvants and immunotherapeutics.
In an assay procedure (High Throughput Screening (HTS)) for small molecule immune potentiators (SMIPs), human peripheral blood mononuclear cells (PBMC), 500,000 per mL in RPMI 1640 medium with 10% FCS, are distributed in 96 well plates (100,000 per well) already containing 5 μM of compound in DMSO. The PBMCs are incubated for 18 h at 37° C. in 5% CO2. Their ability to produce cytokines in response to the small molecule compounds is determined using a modified sandwich ELISA.
Briefly supernatants from the PBMC cultures are assayed for secreted TNF using a primary plate bound antibody for capture followed by a secondary biotinylated anti-TNF antibody forming a sandwich. The biotinylated second antibody is then detected using streptavidin-Europium and the amount of bound europium is determined by time resolved fluorescence. Compounds are screened for their TNF inducing activity that is measured in the assay as increased Europim counts over cells incubated in RPMI medium alone. “Hits” are selected based on their TNF-inducing activity relative to an optimal dose of lipopolysaccaride LPS (1 μg/ml), a strong TNF inducer. The robustness of the assay and low backgrounds have allowed for the routine selection of hits with ˜10% of LPS activity that is normally between 5-10× background (cells alone). Selected hits are then subjected to confirmation for their ability to induce cytokines from multiple donors at decreasing concentrations. Those compounds with consistent activity at or below 5 μM are considered confirmed for the purposes of this assay. The assay is readily modified for screening for compounds effective at higher or lower concentrations.
In general terms: ELISA stands for enzyme-linked immunosorbent assay.

Take `CCCCCCCC(=O)OCCN(C)c1ccc2c(=O)n3c(nc2c1)C(=O)c1cc(Cl)ccc1-3` [Compound 1049, 2-[(8-chloro-6,12-dioxo-6,12-dihydroindolo[2,1-b]quinazolin-3-yl)(methyl)amino]ethyl octanoate]: the minimal effective concentration was no less than 20 µM.

Regarding `CN(CCO)c1ccc2c(=O)n3c(nc2c1)C(=O)c1cc(OC(F)(F)F)ccc1-3` [Compound 1050, 3-[(2-hydroxyethyl)(methyl)a-mino]-8-[(trifluoromethyl)oxy]indol o[2,1-b]quinazoline-6,12-dione], the minimal effective concentration is no less than 20 µM.

As for `O=C1c2cc(Cl)ccc2-n2c1nc1cc(SCCO)ccc1c2=O` [Compound 1051, 8-chloro-3-[(2-hydroxyethyl)thio]indolo[2,1-b]quinazoline-6,12-dione], the minimal effective concentration is no less than 20 µM.

As to `CC(=O)OCCCCCCc1ccc2c(c1)C(=O)c1nc3ncccc3c(=O)n1-2` [Compound 1052, 6-(5,11-dioxo-5,11-dihydropyrido[2′,3′:4,5]py-rimido[1,2-a]indol-9-yl)hexyl acetate], the minimal effective concentration was no less than 20 µM.

One may read the minimal effective concentration as the smallest amount tested that counted as effective.
